Experimental data as given in patent US20100189786A1, “CRYSTALLINE TOLTERODINE TARTARATE AND A PHARMACEUTICAL COMPOSITION CONTAINING THE SAME” (priority 2006, published 2010).

Assay: Measurement of particle size by the microscopic method
Format: physicochemical
Details: no treatment; for weight of the material that would pass through the 250 μm sieve: share by weight; for particles smaller than 30 μm: share of all particles
Protocol: The drawings represent results of measurement of the particle size of the product prepared according to Example 2 by a microscopic method.
For all the batches, measurement of particle size was performed without any treatment using the microscopic method.

SMILES	maximum crystal size	maximum crystal size (listed as batch III)	weight of the material that would pass through the 250 μm sieve	weight of the material that would pass through the 250 μm sieve (listed as batch III)	particles smaller than 30 μm	particles smaller than 30 μm (listed as batch III)	maximum crystal size (listed as batch II)	weight of the material that would pass through the 250 μm sieve (listed as batch II)	particles smaller than 30 μm (listed as batch II)	maximum crystal size (listed as batch I)	weight of the material that would pass through the 250 μm sieve (listed as batch I)	particles smaller than 30 μm (listed as batch I)
Cc1ccc(O)c([C@H](CCN(C(C)C)C(C)C)c2ccccc2)c1.O=C(O)C(O)C(O)C(=O)O [Batch III, R-tolterodine tartarate]	702 μm	702 μm	41.3%	41.3%	89.29%	89.29%						
Cc1ccc(O)c([C@H](CCN(C(C)C)C(C)C)c2ccccc2)c1.O=C(O)C(O)C(O)C(=O)O [Batch II, R-tolterodine tartarate]	439 μm		47.2%		94.73%		439 μm	47.2%	94.73%			
Cc1ccc(O)c([C@H](CCN(C(C)C)C(C)C)c2ccccc2)c1.O=C(O)C(O)C(O)C(=O)O [Batch I, R-tolterodine tartarate]	623 μm		40.9%		91.95%					623 μm	40.9%	91.95%
